Assay results from article PMC7034945 (RSC Advances, 2019).
Read-outs that look alike come from different tables or passages of the source.

What was measured:
in vitro = settings: human
HIV-1 NL4-3 virus = experiment: Anti-HIV-1 activity, multicycle assay with HIV-1 NL4-3 in TZM-bl cells; type: cell-based; settings: for anti-HIV-1 activity (in words): at the test concentration
HIV-1 CA monomer = HIV-1 CA monomer (Human immunodeficiency virus type 1 group M subtype B, UniProt P12493); experiment: biochemical; type: binding, HIV-1 NL4-3
TZM-bl cells = settings: uninfected TZM-bl cells, NA = no cytotoxicity at the test concentration
[1] = measured by HPLC
[2] = Table 2, HIV-1 NL4-3, TZM-bl cells, NA = no anti-HIV-1 activity at the test concentration

Compound: COc1ccc(N(C)C(=O)[C@H](Cc2cc(F)cc(F)c2)NC(=O)c2cccc(-c3cn(Cc4ccc([N+](=O)[O-])cc4)nn3)c2)cc1 [II-10c, (S)-N-(3-(3,5-Difluorophenyl)-1-((4-methoxyphenyl)(methyl)amino)-1-oxopropan-2-yl)-3-(1-(4-nitrobenzyl)-1H-1,2,3-triazol-4-yl)benzamide]
- Papp A→B (in vitro; Caco-2, pH 7.4, Mean Papp A to B, Caco-2, 2 μM, 2 hours, pH 7.40): < 0.01 ×10⁻⁶ cm/s
- Papp A→B (in vitro; Caco-2, pH 7.4, Rank Papp, Caco-2, A to B, permeability class): < 0.5 ×10⁻⁶ cm/s
- Papp A→B (in vitro; Caco-2, pH 7.4, apparent permeability (Papp), Caco-2 cells): < 0.01 ×10⁻⁶ cm/s
- EC50 (HIV-1 NL4-3 virus; Human immunodeficiency virus 1, NL43, TZM-bl): 2.13 ± 0.75 µM
- anti-HIV-1 activity (in words) (HIV-1 NL4-3 virus; TZM-bl cells): exhibited anti-HIV-1 activity at the test concentration
- SI (selectivity index, ratio of CC50/EC50) (HIV-1 NL4-3 virus; Table 2, TZM-bl cells): >16.66
- Kd (HIV-1 CA monomer): 2.2 ± 0.23 µM

Compound: (S)-N-(1-((4-Methoxyphenyl)(methyl)amino)-1-oxo-3-phenylpropan-2-yl)-3-(1-(3-(thiophen-3-yl)propyl)-1H-1,2,3-triazol-4-yl)benzamide [III-15h]
- CC50 (TZM-bl cells; Table 2): > 35.4 µM
- log P [1]: 2.36
- anti-HIV-1 activity (in words) (HIV-1 NL4-3 virus; TZM-bl cells): exhibited anti-HIV-1 activity at the test concentration
- EC50 (HIV-1 NL4-3 virus; [2]): 9.37 ± 3.18 µM

Compound: N-((S)-3-(3,5-Difluorophenyl)-1-((4-methoxyphenyl)(methyl)amino)-1-oxopropan-2-yl)-1-(2-(hydroxymethyl)-5-(5-methyl-2,6-dioxo-1,2,3,6-tetrahydropyridin-3-yl)tetrahydrofuran-3-yl)-1H-1,2,3-triazole-4-carboxamide [I-8u]
- CC50 (TZM-bl cells; Table 1): > 15.6 µM
- anti-HIV-1 activity (in words) (HIV-1 NL4-3 virus; TZM-bl cells): lost its anti-HIV-1 activity
- EC50 (HIV-1 NL4-3 virus; Table 1, HIV-1 NL4-3, TZM-bl cells, NA = no anti-HIV-1 activity at the test concentration): > 15.6 µM

Compound: N-((S)-3-(3,5-Difluorophenyl)-1-((4-methoxyphenyl)(methyl)amino)-1-oxopropan-2-yl)-3-(1-(2-(hydroxymethyl)-5-(5-methyl-2,6-dioxo-1,2,3,6-tetrahydropyridin-3-yl)tetrahydrofuran-3-yl)-1H-1,2,3-triazol-4-yl)benzamide [II-10o]
- CC50 (TZM-bl cells; Table 2): > 27.9 µM
- EC50 (HIV-1 NL4-3 virus; [2]): > 27.9 µM
